# In patent US20120129809A1, “LUNG CANCER TREATMENT” (priority 2009, published 2012):
# Tests used:
# side effects in patients = assay type: in vivo; details: onset as early as first week of treatment
# [1] = system: NSCLC cell lines (KRAS mutant and KRAS wild-type); experiment: panel of more than 100 NSCLC cell lines; assay type: cell-based
# human tumor cell lines = experiment: antiproliferative activity in human tumor cell lines; assay type: cell-based; details: broad range of human tumor cell lines, including NSCLC, fibrosarcoma, glioblastoma, erythroleukemia, prostate, colon, ovarian, endometrial and breast cancers
# [2] = system: human tumor cell line xenografts; experiment: murine tumor xenograft models utilizing human tumor cell lines; assay type: in vivo; details: xenografts representing glioblastoma, prostate, breast, lung, colon and pancreatic cancers
# A549 = experiment: KRAS mutant NSCLC xenograft A549; assay type: in vivo
# H2122 = experiment: KRAS mutant NSCLC xenograft H2122; assay type: in vivo
# [3] = system: PTEN-deficient tumor cell lines; details: PTEN-deficient lines including glioblastoma, prostate, breast, pancreas, lung and colon; cited from earlier work
# [4] = system: several tumor types, such as sarcomas; experiment: clinical development in advanced cancers; assay type: in vivo
structure (smiles),measurement,setting,value
CO[C@H]1C[C@@H]2CC[C@@H](C)[C@@](O)(O2)C(=O)C(=O)N2CCCCC2C(=O)O[C@H]([C@H](C)C[C@@H]2CC[C@H](OP(C)(C)=O)[C@H](OC)C2)CC(=O)[C@H](C)/C=C(\C)[C@@H](O)[C@H](OC)C(=O)[C@H](C)C[C@@H](C)/C=C/C=C/C=C/1C (stereo in doubt) [Deforolimus],side effect,side effects in patients,mouth sores typically reported as mucositis
same,activity in KRAS mutant versus KRAS wild-type cells,[1],the same in both KRAS mutant and KRAS wild-type cells
same,antiproliferative activity,human tumor cell lines,demonstrated antiproliferative activity
same,in vivo activity,[2],demonstrated in vivo activity
same,metabolism by CYP3A,CYP3A,extensively metabolized by CYP3A
same,anti-tumor activity,A549,showed anti-tumor activity
same,anti-tumor activity,H2122,showed anti-tumor activity
same,antiproliferative activity,[3],demonstrated antiproliferative activity
same,anti-tumor activity,[4],evidence of anti-tumor activity
